According to patent publication US8231858B2, “Diagnostic imaging agents with MMP inhibitory activity” (GE Healthcare Limited, priority 2003, dated 2012):

Experiments:
MMP-2 = target: T1, MMP-2 (Homo sapiens, UniProt P08253); experiment: Assay for MMP-2 inhibitory activity (fluorogenic substrate); format: biochemical; conditions: MMP-2 1 nM, preincubation 37° C. for 30 min, pH 7.5
T1 sequence (P08253 110-660): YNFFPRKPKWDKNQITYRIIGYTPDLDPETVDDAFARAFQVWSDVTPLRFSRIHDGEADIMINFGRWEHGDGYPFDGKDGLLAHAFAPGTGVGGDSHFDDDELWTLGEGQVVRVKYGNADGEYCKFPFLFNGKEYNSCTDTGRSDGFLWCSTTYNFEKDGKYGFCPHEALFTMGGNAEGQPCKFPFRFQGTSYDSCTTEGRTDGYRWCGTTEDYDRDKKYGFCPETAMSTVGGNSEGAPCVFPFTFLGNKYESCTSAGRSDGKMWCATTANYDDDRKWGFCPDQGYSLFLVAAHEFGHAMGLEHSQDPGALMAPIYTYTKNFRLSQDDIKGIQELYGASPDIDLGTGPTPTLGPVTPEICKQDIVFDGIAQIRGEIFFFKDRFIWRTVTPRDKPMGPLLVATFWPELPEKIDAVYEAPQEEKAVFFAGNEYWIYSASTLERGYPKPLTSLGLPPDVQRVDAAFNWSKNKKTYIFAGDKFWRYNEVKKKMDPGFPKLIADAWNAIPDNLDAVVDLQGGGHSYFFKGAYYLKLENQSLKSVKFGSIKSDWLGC
Procedure: (§1) The synthetic broad-spectrum fluorogenic substrate (7-methoxycoumarin-4-yl) acetyl pro-Leu-Gly-Leu-(3-(2,4-dinitrophenyl)-L-2,3-diamino-propionyl)-Ala-Arg-NH2 (R & D Systems) was used to assay MMP-2 and MMP-9 activity as described previously [Huang et al J. Biol. Chem. 272 22086-22091 (1997)]. […] An aliquot (10 μl) of substrate (5 μM) was then added to […] of preincubated MMP/compound mixture, and activity was determined at 37° C. by following product release with time. The fluorescence changes were monitored using a Fusion Universal Microplate Analyzer (Packard Bioscience) with excitation and emission wavelengths set to 330 and 390 nm, respectively for MMP-2 and MMP-9. Inhibited rates were measured from the initial 10 min of the reaction profile where product release was linear with time. Nonlinear regression analysis was performed using the XMGRACE 5.18 software under linux.

MMP-9 = MMP-9 (Homo sapiens, UniProt P14780); experiment: Assay for MMP-9 inhibitory activity (fluorogenic substrate); format: biochemical; conditions: MMP-9 2 nM, preincubation 37° C. for 30 min, pH 7.5
Chain of MMP-9 (P14780 94-707, species assumed): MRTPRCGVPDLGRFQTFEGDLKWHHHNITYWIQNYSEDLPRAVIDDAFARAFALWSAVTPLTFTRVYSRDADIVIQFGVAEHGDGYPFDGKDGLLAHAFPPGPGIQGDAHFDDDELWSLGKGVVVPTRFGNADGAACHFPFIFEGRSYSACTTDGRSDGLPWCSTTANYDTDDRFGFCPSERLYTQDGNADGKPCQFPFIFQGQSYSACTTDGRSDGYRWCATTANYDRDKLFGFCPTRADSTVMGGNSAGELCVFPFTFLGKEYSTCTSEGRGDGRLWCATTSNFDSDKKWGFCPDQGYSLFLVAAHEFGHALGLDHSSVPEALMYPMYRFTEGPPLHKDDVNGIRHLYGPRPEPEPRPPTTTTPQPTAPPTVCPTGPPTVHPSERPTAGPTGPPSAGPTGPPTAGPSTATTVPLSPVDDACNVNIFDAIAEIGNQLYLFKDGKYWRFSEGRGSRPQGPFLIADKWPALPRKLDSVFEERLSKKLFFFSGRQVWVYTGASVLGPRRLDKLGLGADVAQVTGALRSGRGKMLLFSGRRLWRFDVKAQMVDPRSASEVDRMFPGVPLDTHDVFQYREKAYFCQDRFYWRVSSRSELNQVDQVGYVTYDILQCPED
Procedure: as §1

Row | IC50 (MMP-2) | IC50 (MMP-9) | melting point | SMILES
1 | 320 nM | 153 nM | 201 to 203 °C | CC(C)[C@H](C(=O)NO)N(Cc1cccnc1)S(=O)(=O)c1ccc(O)c(I)c1 [Compound 8]
2 | 2.5 nM | 4.6 nM | 169 °C | CC(C)C(C(=O)NO)N(Cc1cccnc1)S(=O)(=O)c1ccc(I)cc1 (centres unmarked) [Compound 9]
3 | 57.5 nM | 257 nM |  | CC(C)[C@H](C(=O)NO)N(Cc1cccnc1)S(=O)(=O)c1ccc(O)cc1 [Compound 13]
4 | 16.2 nM | 76 nM | 169 to 170 °C | CC(C)[C@H](C(=O)NO)N(Cc1cccnc1)S(=O)(=O)c1ccc(Br)cc1 [Compound 14]
